Tested on: 186277-243-T-J2-PDC spheroids with HUVEC/MSC, viability
Assay: Anticancer human tumor 186277-243-T-J2-PDC patient-derived colon adenocarcinoma cell line growth inhibition [CLK]
Conditions: for IC50: curve of first compound; for viability, T/C: stronger effect = lower value
In short: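 Multi-cell-type spheroids combined patient-derived tumor cells with HUVEC endothelial cells and human mesenchymal stem cells. Paired agents were dosed in half-log steps down from about clinical Cmax, or from 10 microM where Cmax was unknown.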
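Note: compound exposure lasted seven days before readout.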
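Throughout, for viability, T/C: 100% = DMSO vehicle control wells.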

## NC(=O)C(=Cn1cnc(-c2cc(C(F)(F)F)cc(C(F)(F)F)c2)n1)c1cncnc1 + CN1CCN(c2cc(C(=O)Nc3cc4cc(-c5cnn(C)c5)ccc4cn3)ccn2)CC1
Second compound 0.0316 µM
  IC50: 127 nM
Second compound 0.1 µM
  IC50: 39 nM
Second compound 0.316 µM
  IC50: < 9.49 nM
Second compound 1 µM
  IC50: < 9.49 nM
Second compound 3.16 µM
  IC50: < 9.49 nM
Second compound 10 µM
  IC50: < 9.49 nM
Second compound 0.0316 µM, first compound 0.00949 µM
  viability, T/C: 98.3%
Second compound 0.0316 µM, first compound 0.03 µM
  viability, T/C: 83.4%
Second compound 0.0316 µM, first compound 0.0949 µM
  viability, T/C: 65.4%
Second compound 0.0316 µM, first compound 0.3 µM
  viability, T/C: 5.69%
Second compound 0.0316 µM, first compound 0.949 µM
  viability, T/C: 1.85%
Second compound 0.0316 µM, first compound 3 µM
  viability, T/C: 2.91%
Second compound 0.1 µM, first compound 0.00949 µM
  viability, T/C: 61.6%
Second compound 0.1 µM, first compound 0.03 µM
  viability, T/C: 60.9%
Second compound 0.1 µM, first compound 0.0949 µM
  viability, T/C: 13.1%
Second compound 0.1 µM, first compound 0.3 µM
  viability, T/C: 1.94%
Second compound 0.1 µM, first compound 0.949 µM
  viability, T/C: 0.71%
Second compound 0.1 µM, first compound 3 µM
  viability, T/C: 1.36%
Second compound 0.316 µM, first compound 0.00949 µM
  viability, T/C: 9.76%
Second compound 0.316 µM, first compound 0.03 µM
  viability, T/C: 4.11%
Second compound 0.316 µM, first compound 0.0949 µM
  viability, T/C: 0.34%
Second compound 0.316 µM, first compound 0.3 µM
  viability, T/C: 0.6%
Second compound 0.316 µM, first compound 0.949 µM
  viability, T/C: 0.58%
Second compound 0.316 µM, first compound 3 µM
  viability, T/C: 0.92%
Second compound 1 µM, first compound 0.00949 µM
  viability, T/C: 1%
Second compound 1 µM, first compound 0.03 µM
  viability, T/C: 1.1%
Second compound 1 µM, first compound 0.0949 µM
  viability, T/C: 0.81%
Second compound 1 µM, first compound 0.3 µM
  viability, T/C: 0.47%
Second compound 1 µM, first compound 0.949 µM
  viability, T/C: 0.34%
Second compound 1 µM, first compound 3 µM
  viability, T/C: 3.14%
Second compound 3.16 µM, first compound 0.00949 µM
  viability, T/C: 1.66%
Second compound 3.16 µM, first compound 0.03 µM
  viability, T/C: 1.29%
Second compound 3.16 µM, first compound 0.0949 µM
  viability, T/C: 1.77%
Second compound 3.16 µM, first compound 0.3 µM
  viability, T/C: 1.67%
Second compound 3.16 µM, first compound 0.949 µM
  viability, T/C: 1.12%
Second compound 3.16 µM, first compound 3 µM
  viability, T/C: 1.92%
Second compound 10 µM, first compound 0.00949 µM
  viability, T/C: 1.29%
Second compound 10 µM, first compound 0.03 µM
  viability, T/C: 1.77%
Second compound 10 µM, first compound 0.0949 µM
  viability, T/C: 1.3%
Second compound 10 µM, first compound 0.3 µM
  viability, T/C: 0.74%
Second compound 10 µM, first compound 0.949 µM
  viability, T/C: 1.71%
Second compound 10 µM, first compound 3 µM
  viability, T/C: 1.04%
